Source: ChEMBL document CHEMBL5113424, “Identification of small-molecule urea derivatives as PTPC modulators targeting the c subunit of F1/Fo-ATP synthase” (Bioorg Med Chem Lett, 2022)
Active and inactive are the calls of the source. The rule behind the calls is not given here.

Assays:
[1] = test system: AC16 [Human hybrid]; test: Inhibition of PTPC in human AC16 cells at 1 uM measured by calcein-cobalt assay relative to control; type: cell-based
[2] = organism: Homo sapiens; test: Binding affinity to F1F0-ATP synthase subunit C (unknown origin) measured by cellular thermal shift assay (CETSA)
[3] = test system: AC16 [Human hybrid]; test: Activation of PTPC in human AC16 cells at 1 uM measured by calcein-cobalt assay relative to control; type: cell-based

Question: With `COc1ccc(NC(=O)Nc2ccccc2)cc1` as the molecule, how does the inhibition [1] read?
Answer: 4.6%

Question: Which inhibition [1] does the source give for `N#Cc1ccc(NC(=O)Nc2ccc(C#N)cc2)cc1` here?
Answer: 25.4%

Question: How did the inhibition [1] turn out when `C(=NC1CCCCC1)=NC1CCCCC1` was run?
Answer: Active

Question: With `O=C(NC1CCCCC1)NC1CCCCC1` as the molecule, how does the Activity [2] read?
Answer: Active

Question: And the inhibition [1]?
Answer: 28%

Question: `CCOC(=O)c1ccc(NC(=O)Nc2ccc(C(=O)OCC)cc2)cc1` was tested. Which inhibition [1] did it give?
Answer: 9.75%

Question: `S=C(NC1CCCCC1)NC1CCCCC1` was tested. Which inhibition [3] did it give?
Answer: 32.4%

Question: With `S=C(Nc1ccccc1)NC1CCCCC1` as the molecule, how does the inhibition [3] read?
Answer: 3%

Question: Which inhibition ([3]; filed as activator) does the source give for `COc1ccc(NC(=O)Nc2ccc(OC)cc2)cc1` here?
Answer: 53.6%

Question: How did the inhibition [1] turn out when `O=C(NC1CC1)NC1CC1` was run?
Answer: 3.87%

Question: `CC(C)(C)OC(=O)NC1CCCCC1` was tested. Which inhibition ([3]; filed as activator) did it give?
Answer: 42.5%

Question: Which inhibition [3] does the source give for `S=C(NCc1ccccc1)NCc1ccccc1` here?
Answer: 37.2%

Question: With `O=C(NCc1ccccc1)NCc1ccccc1` as the molecule, how does the inhibition [3] read?
Answer: 30.4%

Question: For `CC(C)(C)NC(=O)NC1CCCCC1`, which inhibition [1] is on record?
Answer: 43.2%

Question: With `O=C(Nc1ccccc1)Nc1ccccc1` as the molecule, how does the inhibition [1] read?
Answer: 28.1%

Question: For `O=C(NC1CCCC1)NC1CCCC1`, which inhibition [1] is on record?
Answer: 16.4%
